Laboratory results taken from patent US20230339871A1, “COMPOUNDS AND METHODS OF MODULATING 17B-HYDROXYSTEROID DEHYDROGENASE TYPE 13” (METREA BIOSCIENCES, INC., priority 2020, published 2023).

Target: T1, recombinant human full-length HSD17B13 protein (Homo sapiens, UniProt Q7Z5P4)
T1 construct: recombinant human full-length HSD17B13 protein; 6xHis (C); made in house; host or cells: HEK293E-253/FH
T1 sequence (Q7Z5P4 20-300): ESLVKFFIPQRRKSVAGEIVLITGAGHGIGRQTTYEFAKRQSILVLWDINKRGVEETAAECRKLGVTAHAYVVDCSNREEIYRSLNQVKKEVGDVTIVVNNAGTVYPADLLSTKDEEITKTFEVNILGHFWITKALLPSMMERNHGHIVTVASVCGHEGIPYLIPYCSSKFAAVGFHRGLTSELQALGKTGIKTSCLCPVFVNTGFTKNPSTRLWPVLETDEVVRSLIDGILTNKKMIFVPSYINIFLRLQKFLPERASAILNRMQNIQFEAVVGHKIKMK
Experiment: HSD17B13 96 luminescence inhibition assay (NAD(P)H-Glo)
Type: biochemical
Method: Compounds of the present disclosure were tested for inhibition of HSD17B13 using the following protocol. Briefly, recombinant human full-length HSD17B13 protein with a 6X-C-terminal His tag was expressed in cell line HEK293E-253/FH and purified using Ni^2+-affinity purification. Enzymatic activity was determined through the production of NADH using the NAD(P)H-Glo Detection System (Promega). The inhibitory activity of test compounds was determined in reactions performed at 30° C. in assay buffer consisting of 25 mM EPPS (8.0), 125 mM NaCl, 0.03% Triton X-100, 0.03% BSA, with […] steroid substrate (1,3,5(10), 7-estratetraen-3, 17b-diol (Steraloids E0580)) added from a 2.5 mM DMSO stock and 500 mM NAD. The final percentage of DMSO was 4.5%. After a one-hour incubation, a 20% volume of luciferase Glo-reagent was added and light units captured on a Victor V Plate Reader (Perkin Elmer).
Concentration-response curves for inhibitors were normalized to control samples containing enzyme only (negative control) and sample without enzyme (positive control). 50% inhibition (IC50) values were determined using a nonlinear least squares fit of the data to a four-parameter equation using Prism 6.0 (GraphPad Software, San Diego).

Compound: CS(=O)(=O)N1CCC(CN2C(=O)S/C(=C\c3c(F)cc(F)c(O)c3F)C2=O)C1 (centres unmarked) [Compound 1, (Z)-3-((1-(methylsulfonyl)pyrrolidin-3-yl)methyl)-5-(2,4,6-trifluoro-3-hydroxybenzylidene)thiazolidine-2,4-dione]
- IC50: > 5 µM

Compound: O=C1S/C(=C\c2ccc(F)c(O)c2)C(=O)N1Cc1ccc(F)c(F)c1 [Compound 2, (Z)-3-(3,4-difluorobenzyl)-5-(4-fluoro-3-hydroxybenzylidene)thiazolidine-2,4-dione]
- IC50: 1 to 5 µM

Compound: O=C1S/C(=C\c2cc(F)c(F)c(O)c2F)C(=O)N1Cc1cccc(O)c1 [Compound 3, (Z)-3(3-hydroxybenzyl)-5-(2,4,5-trifluoro-3-hydroxybenzylidene)thiazolidine-2,4-dione]
- IC50: 1 to 5 µM

Compound: O=C1S/C(=C\c2c(F)cc(F)c(O)c2F)C(=O)N1Cc1cccc(O)c1 [Compound 4, (Z)-3-(3-hydroxybenzyl)-5-(2,4,6-trifluoro-3-hydroxybenzylidene)thiazolidine-2,4-dione]
- IC50: 1 to 5 µM

Compound: O=C1S/C(=C\c2ccc(F)c(O)c2F)C(=O)N1Cc1cccc(O)c1 [Compound 6, (Z)-5(2,4-difluoro-3-hydroxybenzylidene)-3-(3-hydroxybenzyl)thiazolidine-2,4-dione]
- IC50: 1 to 5 µM

Compound: O=C1S/C(=C\c2cc(O)c(F)c(F)c2)C(=O)N1Cc1cccc(O)c1 [Compound 7, (5Z)-5-[(3,4-difluoro-5-hydroxyphenyl)methylidene]-3-[(3-hydroxyphenyl)methyl]-1,3-thiazolidine-2,4-dione]
- IC50: 1 to 5 µM

Compound: O=C1S/C(=C\c2ccc(F)c(O)c2)C(=O)N1Cc1cc(O)ccc1F [Compound 8, (Z)-5-(4-fluoro-3-hydroxybenzylidene)-3-(2-fluoro-5-hydroxybenzyl)thiazolidine-2,4-dione]
- IC50: 1 to 5 µM

Compound: O=C1S/C(=C\c2ccc(F)c(O)c2)C(=O)N1Cc1cc(O)cc(F)c1 [Compound 9, (Z)-5-(4-fluoro-3-hydroxybenzylidene)-3-(3-fluoro-5-hydroxybenzyl)thiazolidine-2,4-dione]
- IC50: 1 to 5 µM

Compound: O=C1O/C(=C\c2ccc(F)c(O)c2)C(=O)N1Cc1cccc(O)c1 [Compound 10, (Z)-5-(4-fluoro-3-hydroxybenzylidene)-3-(3-hydroxybenzyl)oxazolidine-2,4-dione]
- IC50: > 5 µM

Compound: O=C1S/C(=C\c2ccc(F)c(O)c2)C(=O)N1Cc1cccc(O)c1 [Compound 11, (Z)-5-(4-fluoro-3-hydroxybenzylidene)-3-(3-hydroxybenzyl)thiazolidine-2,4-dione]
- IC50: 1 to 5 µM

Compound: CS(=O)(=O)c1cccc(CN2C(=O)S/C(=C\c3ccc(F)c(O)c3)C2=O)c1 [Compound 12, (Z)-5-(4-fluoro-3-hydroxybenzylidene)-3-(3-(methylsulfonyl)benzyl)thiazolidine-2,4-dione]
- IC50: 1 to 5 µM

Compound: O=C1O/C(=C\c2ccc(F)c(O)c2)C(=O)N1CC1CCOCC1 [Compound 13, (Z)-5-(4-fluoro-3-hydroxybenzylidene)-3-((tetrahydro-2H-pyran-4-yl)methyl) oxazolidine-2,4-dione]
- IC50: 1 to 5 µM

Compound: O=C1S/C(=C\c2ccc(F)c(O)c2)C(=O)N1CC1CCOCC1 [Compound 14, (Z)-5-(4-fluoro-3-hydroxybenzylidene)-3-((tetrahydro-2H-pyran-4-yl)methyl)thiazolidine-2,4-dione]
- IC50: > 5 µM

Compound: O=C1S/C(=C\c2ccc(F)c(O)c2)C(=O)N1Cc1cccc(-c2c[nH]nn2)c1 [Compound 15, (Z)-3-(3-(1H-1,2,3-triazol-4-yl)benzyl)-5-(4-fluoro-3-hydroxybenzylidene) thiazolidine-2,4-dione]
- IC50: 1 to 5 µM

Compound: O=C1S/C(=C\c2ccc(F)c(O)c2)C(=O)N1Cc1cccc(OC(F)(F)F)c1 [Compound 16, (Z)-5-(4-fluoro-3-hydroxybenzylidene)-3-(3-(trifluoromethoxy)benzyl) thiazolidine-2,4-dione]
- IC50: > 5 µM

Compound: O=C1S/C(=C\c2ccc(F)c(O)c2)C(=O)N1Cc1cccc(C(F)(F)F)c1 [Compound 17, (Z)-5-(4-fluoro-3-hydroxybenzylidene)-3-(3-(trifluoromethyl)benzyl)thiazolidine-2,4-dione]
- IC50: 1 to 5 µM

Compound: NC(=O)c1cccc(CN2C(=O)S/C(=C\c3ccc(F)c(O)c3)C2=O)c1 [Compound 18, (Z)-3-((5-(4-fluoro-3-hydroxybenzylidene)-2,4-dioxothiazolidin-3-yl)methyl) benzamide]
- IC50: 1 to 5 µM

Compound: N#Cc1cccc(CN2C(=O)S/C(=C\c3ccc(F)c(O)c3)C2=O)c1 [Compound 19, (Z)-3-((5-(4-fluoro-3-hydroxybenzylidene)-2,4-dioxothiazolidin-3-yl)methyl) benzonitrile]
- IC50: 1 to 5 µM

Compound: CS(=O)(=O)Nc1cccc(CN2C(=O)S/C(=C\c3ccc(F)c(O)c3)C2=O)c1 [Compound 20, N-(3-{[(5Z)-5-[(4-fluoro-3-hydroxyphenyl)methylidene]-2,4-dioxo-1,3-thiazolidin-3-yl]methyl}phenyl)methanesulfonamide]
- IC50: > 5 µM

Compound: COc1cc(CN2C(=O)S/C(=C\c3c(F)cc(F)c(O)c3F)C2=O)ccn1 [Compound 22, (Z)-3-((2-methoxypyridin-4-yl)methyl)-5-(2,4,6-trifluoro-3-hydroxybenzylidene) thiazolidine-2,4-dione]
- IC50: ≤ 1 µM

Compound: COc1ccc(CN2C(=O)S/C(=C\c3c(F)cc(F)c(O)c3F)C2=O)cn1 [Compound 23, (Z)-3-((6-methoxypyridin-3-yl)methyl)-5-(2,4,6-trifluoro-3-hydroxybenzylidene)thiazolidine-2,4-dione]
- IC50: 1 to 5 µM

Compound: O=C(NCc1cccc(O)c1)c1ccc2cc(F)c(O)cc2n1 [Compound 24, 6-fluoro-7-hydroxy-N-(3-hydroxybenzyl)quinoline-2-carboxamide]
- IC50: 1 to 5 µM

Compound: O=C(NCc1cccc(-c2nnn[nH]2)c1)c1ccc2cc(F)c(O)cc2n1 [Compound 25, N-(3-(1H-tetrazol-5-yl)benzyl)-6-fluoro-7-hydroxyquinoline-2-carboxamide]
- IC50: > 5 µM

Compound: O=C(NCc1cccc(O)c1)c1cc2cc(O)c(F)cc2cn1 [Compound 26, 7-fluoro-6-hydroxy-N-(3-hydroxybenzyl)isoquinoline-3-carboxamide]
- IC50: > 5 µM

Compound: N#Cc1cccc(CNC(=O)c2ccc3cc(F)c(O)cc3n2)c1 [Compound 27, N-(3-cyanobenzyl)-6-fluoro-7-hydroxyquinoline-2-carboxamide]
- IC50: > 5 µM

Compound: O=C(c1ccc(F)c(O)c1)c1ccc(-c2ccc(F)c(O)c2F)s1 [Compound 28, (5-(2,4-difluoro-3-hydroxyphenyl)thiophen-2-yl)(4-fluoro-3-hydroxyphenyl) methanone]
- IC50: 1 to 5 µM

Compound: O=C(c1ccc(-c2ccc(F)c(O)c2F)s1)c1c(F)cc(F)c(O)c1F [Compound 29, (5-(2,4-difluoro-3-hydroxyphenyl)thiophen-2-yl)(2,4,6-trifluoro-3-hydroxyphenyl)methanone]
- IC50: 1 to 5 µM

Compound: O=C(c1cc(O)c(F)c(F)c1)c1ccc(-c2ccc(F)c(O)c2F)s1 [Compound 30, (5-(2,4-difluoro-3-hydroxyphenyl)thiophen-2-yl)(3,4-difluoro-5-hydroxyphenyl) methanone]
- IC50: 1 to 5 µM

Compound: O=C(c1ccc(-c2ccc(F)c(O)c2F)s1)c1cc(F)c(F)c(O)c1F [Compound 31, (5-(2,4-difluoro-3-hydroxyphenyl)thiophen-2-yl)(2,4,5-trifluoro-3-hydroxyphenyl) methanone]
- IC50: 1 to 5 µM
